# How the values were obtained:
# [1] = target: T1, Recombinant human EIF2AK3 (PERK) catalytic domain (Homo sapiens, UniProt Q9NZJ5); assay: PERK biochemical TR-FRET kinase assay using purified eIF2a as substrate; settings: read-out: PERK Enzyme IC50
# T1 construct: catalytic domain (amino acids 536-1116; Cat # PV5107); purchased Invitrogen (Carlsbad, Calif.) PV5107
# T1 sequence (Q9NZJ5 536-1116): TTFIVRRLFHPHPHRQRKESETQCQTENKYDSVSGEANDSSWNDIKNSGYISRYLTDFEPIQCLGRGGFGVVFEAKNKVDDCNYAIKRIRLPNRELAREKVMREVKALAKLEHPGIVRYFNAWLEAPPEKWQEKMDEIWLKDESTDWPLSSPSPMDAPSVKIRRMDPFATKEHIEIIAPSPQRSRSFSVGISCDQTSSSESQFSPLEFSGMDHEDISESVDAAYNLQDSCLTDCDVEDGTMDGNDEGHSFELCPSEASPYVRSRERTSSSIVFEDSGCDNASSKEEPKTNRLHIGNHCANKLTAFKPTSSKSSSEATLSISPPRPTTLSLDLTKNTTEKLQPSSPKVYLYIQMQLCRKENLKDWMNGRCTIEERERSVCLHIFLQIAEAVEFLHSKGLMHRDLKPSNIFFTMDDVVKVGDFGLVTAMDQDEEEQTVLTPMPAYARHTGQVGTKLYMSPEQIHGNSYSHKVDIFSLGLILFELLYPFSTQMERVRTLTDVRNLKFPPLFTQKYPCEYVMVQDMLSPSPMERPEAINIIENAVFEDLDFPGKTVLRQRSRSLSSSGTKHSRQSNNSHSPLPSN
# Experimental: (§1) TR-FRET kinase assays were performed in the absence or presence of inhibitors in a reaction buffer consisting of 50 mM HEPES, pH 7.5, 10 mMMgCl2, 1.0 mM EGTA, and 0.01% Brij-35, and 100-200 nM GFP-eIF2a substrate. […] Following the addition of test compound, the reaction was initiated by addition of enzyme and incubated at room temperature for 45 minutes. The reaction was stopped by addition of EDTA to a final concentration of 10 mM and Terbium-labelled phospho-eIF2α antibody was added at a final concentration of 2 nM and incubated for 90 minutes. The resulting fluorescence was monitored in an EnVison® Multilabel reader (PerkinElmer, Waltham, Mass.). TR-FRET ratios and the resulting IC50 values were determined from the fitted inhibition curves. Biochemical specificity profiling was performed at Cerep (Redmond, Wash.) and DiscoverX (San Diego, Calif.).
# 456 kinases = assay: DiscoveRx scanMAX kinase profiling, number of kinases inhibited; type: binding; settings: for # kinases inhibited >50%: 456 kinases tested; for number of kinases with >60% inhibition: 20 μM as stated in text, 456 kinases
# Experimental: as §1, with “Biochemical assays: Recombinant human EIF2AK3 (PERK) catalytic domain (amino acids 536-1116; Cat # PV5107), GFP-eIF2a (Cat # PV4809) substrate, and Terbium-labelled phospho-eIF2a antibody (Cat # PR8956B) were purchased from Invitrogen (Carlsbad, Calif.). HIS-SUMO-GCN2 catalytic domain (amino acids 584-1019) was expressed and purified from E. coli. TR-FRET kinase” for “TR-FRET kinase”
# secondary kinase targets = assay: Kinase selectivity by enzymatic biochemical assay (FIG. 2E); settings: enzymatic assays
# Experimental: as §1, with “Biochemical assays: Recombinant human EIF2AK3 (PERK) catalytic domain (amino acids 536-1116; Cat # PV5107), GFP-eIF2a (Cat # PV4809) substrate, and Terbium-labelled phospho-eIF2a antibody (Cat # PR8956B) were purchased from Invitrogen (Carlsbad, Calif.). HIS-SUMO-GCN2 catalytic domain (amino acids 584-1019) was expressed and purified from E. coli. TR-FRET kinase” for “TR-FRET kinase”
# [2] = target: T2, PERK phosphorylation in MCF10A-HER2 cells (Homo sapiens, UniProt Q9NZJ5); assay: Immunoblot of PERK phosphorylation in stressed cells; type: cell-based; settings: 2 μM; cells in suspension for 24 hours
# T2 construct: endogenous in cells; host or cells: MCF10A-HER2 cells in suspension for 24 hours
# T2 sequence (Q9NZJ5 30-1116): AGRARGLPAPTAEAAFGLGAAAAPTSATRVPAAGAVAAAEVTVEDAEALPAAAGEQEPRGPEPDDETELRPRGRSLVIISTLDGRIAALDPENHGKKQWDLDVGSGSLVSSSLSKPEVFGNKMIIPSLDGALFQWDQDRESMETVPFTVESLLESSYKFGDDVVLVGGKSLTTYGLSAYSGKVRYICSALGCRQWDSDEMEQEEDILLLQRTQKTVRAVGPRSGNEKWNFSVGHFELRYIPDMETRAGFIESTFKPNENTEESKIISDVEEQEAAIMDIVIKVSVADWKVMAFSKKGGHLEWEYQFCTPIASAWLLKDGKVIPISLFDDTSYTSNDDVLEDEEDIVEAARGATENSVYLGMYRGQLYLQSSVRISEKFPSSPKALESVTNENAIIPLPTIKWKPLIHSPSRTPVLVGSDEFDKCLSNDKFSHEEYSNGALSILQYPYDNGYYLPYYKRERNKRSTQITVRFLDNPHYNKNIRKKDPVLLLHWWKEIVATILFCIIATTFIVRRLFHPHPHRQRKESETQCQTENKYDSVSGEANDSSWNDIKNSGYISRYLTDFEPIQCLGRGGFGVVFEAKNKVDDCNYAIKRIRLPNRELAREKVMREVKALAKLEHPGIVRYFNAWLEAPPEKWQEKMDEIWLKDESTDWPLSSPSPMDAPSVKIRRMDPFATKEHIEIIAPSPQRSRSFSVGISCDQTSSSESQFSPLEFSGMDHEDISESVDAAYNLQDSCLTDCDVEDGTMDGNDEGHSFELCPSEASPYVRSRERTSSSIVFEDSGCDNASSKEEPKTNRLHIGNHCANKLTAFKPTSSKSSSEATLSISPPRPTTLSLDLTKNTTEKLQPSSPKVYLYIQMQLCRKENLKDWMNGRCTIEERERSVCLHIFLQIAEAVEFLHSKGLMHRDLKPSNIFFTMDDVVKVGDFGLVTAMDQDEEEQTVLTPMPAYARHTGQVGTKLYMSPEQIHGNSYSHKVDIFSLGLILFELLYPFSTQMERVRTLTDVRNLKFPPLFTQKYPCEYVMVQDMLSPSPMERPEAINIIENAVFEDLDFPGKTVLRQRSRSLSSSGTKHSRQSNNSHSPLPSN
# kinases inhibited >50% (456 kinases; 20.0 μM),SMILES,IC50 [1] [nM],# kinases inhibited >50% (456 kinases; 0.2 μM),# kinases inhibited >50% (456 kinases; 2.0 μM),number of kinases with >60% inhibition (456 kinases),secondary kinase targets (secondary kinase targets),PERK phosphorylation (immunoblot) [2]
–,"Cc1cccc(CC(=O)N2CCc3c2ccc(-c2cn(C)c4ncnc(N)c24)c3F)n1 [GSK2656157, reference compound]",8,34,80,58,several secondary targets below 5 μM,inhibition of PERK phosphorylation
138,"CNC(=O)c1nc(-c2ccc(NC(=O)[C@H](O)c3cc(F)cc(F)c3)cc2C)cnc1N [LY2, 3-amino-6-[4-[[(2R)-2-(3,5-difluorophenyl)-2-hydroxy-acetyl]amino]-2-methyl-phenyl]-N-methyl-pyrazine-2-carboxamide]",2,16,35,–,several secondary targets below 5 μM,inhibition of PERK phosphorylation
229,"Cc1cc(NC(=O)[C@H](O)c2cccc(F)c2)ccc1-c1cn(C)c2ncnc(N)c12 [LY3, (2R)-N-[4-(4-amino-7-methyl-pyrrolo[2,3-d]pyrimidin-5-yl)-3-methyl-phenyl]-2-(3-fluorophenyl)-2-hydroxy-acetamide]",2,27,85,–,several secondary targets below 5 μM,inhibition of PERK phosphorylation
–,"Cc1cc(NC(=O)[C@H](O)c2cc(F)cc(F)c2)ccc1-c1cnc(N)c(C(=O)NC(C)C)c1 [LY4, 2-amino-5-[4-[[(2R)-2-(3,5-difluorophenyl)-2-hydroxy-acetyl]amino]-2-methyl-phenyl]-N-isopropyl-pyridine-3-carboxamide]",2,19,20,8,no secondary kinase targets below 15 μM concentration,inhibition of PERK phosphorylation

# — US20210121527A1, “METHODS OF TREATING MINIMAL RESIDUAL CANCER” (ICAHN SCHOOL OF MEDICINE AT MOUNT SINAI, priority 2018, published 2021)
